Assay [1] deals with spontaneous marble-burying behaviour of mice. Kind of assay: Marble-burying test in mice. In kind it is in vivo. The note with it: male NMRI mice, 30 minutes' free exploration, s.c. The source says:
This test enables evaluation of the capacity of pharmacological agents to inhibit the spontaneous marble-burying behaviour of mice, the inhibition being predictive of antidepressant and/or anti-impulsive action. Male mice of the NMRI strain (Iffa-Credo, l'Arbresle, France) weighing from 20 to 25 g on the day of the experiment are placed individually in Macrolon® boxes (30×18×19 cm) containing 5 cm of sawdust and covered with a perforated plexiglass plate. Twenty-four “tiger's eye” glass marbles are evenly distributed on the sawdust at the periphery of the box. At the end of 30 minutes' free exploration, the animals are removed from the box and the number of buried marbles is counted.

Assay [2] relates to level of serotonin, noradrenalin and dopamine in cingulate frontal cortex. Kind of assay: Microdialysis experiment in the rat. In kind it is in vivo. The note with it: rat frontal cortex dialysate, 10 mg/kg subcutaneously. The method, then: Rats are anaesthetised with pentobarbital (60 mg/kg i.p.). They are placed in a Kopf stereotactic device and the cannula guide is implanted in the cingulate frontal cortex in accordance with the coordinates described in the Paxinos and Watson atlas (1982) as follows: AP=+2.2; L=±0.6; DV=−0.2. The rats are placed in separate cages and are not used in dialysis until 5 days later. […] The probe is perfused at a flow rate of 1 μl/mn with a solution of 147.2 mM NaCl, 4 mM KCl and 2.3 mM CaCl2 adjusted to pH 7.3 with a phosphate buffer (0.1 M). Two hours after implantation, samples are collected every 20 minutes for 4 hours. Three baseline samples are taken before administration of the products to be tested. The rats are left in their individual cages for the whole of the experiment. When the experiment is finished, the rats are decapitated and the brain is removed and frozen in isopentane. Sections of a thickness of 100 μm are cut and stained with cresyl violet, which allows verification of the location of the probes.
The simultaneous quantification of dopamine, norepinephrine and serotonin is carried out as follows: 20 μl dialysis samples are each diluted with 20 μl of mobile phase (NaH2PO4: 75 mM, EDTA: 20 μM, sodium 1-decanesulphonate: 1 mM, methanol: 17.5%, triethylamine: 0.01%, pH: 5.70) and 33 μl samples are analysed by HPLC using a reverse phase column thermostatically maintained at 45° C. and quantified by means of a coulometric detector. The potential of the first electrode of the detector is set at −90 mV (reduction) and that of the second at +280 mV (oxidation). The mobile phase is injected at a flow rate of 2 ml/mn using a pump. The sensitivity limits for dopamine, norepinephrine and serotonin are 0.55 fmol per sample. All the products of the invention are injected subcutaneously in a volume of 1.0 ml/kg. The products are dissolved in distilled water to which a few drops of lactic acid have been added if necessary.

Each structure is given as a SMILES string.

Take `CNCCC(Oc1ccc(C(F)(F)F)cc1)c1ccccc1` (centres unmarked) [Fluoxetine, fluoxetine, reference compound]: the “Marble-burying in mice, ID50 (inhibitory dose50)” value in assay [1] was determined as 8.03 mg/kg s.c.

Turning to `CN(C)CC1(C2(O)CCCCC2)Cc2cc3occc3cc21` (centres unmarked) [Example 5, 1-{5-[(Dimethylamino)methyl]-5,6-dihydrocyclobuta[f][1]benzofuran-5-yl}cyclohexanol], the “Marble-burying in mice, ID50 (inhibitory dose50)” value in assay [1] was found to be 0.6 mg/kg s.c. Besides, in assay [2], the “increase of the level of dopamine (maximum % of the effect compared with the baseline level defined as 0%)” value was 400±50%, the “increase of the level of noradrenalin (maximum % of the effect compared with the baseline level defined as 0%)” value is reported as 500±13% and the “increase of the level of serotonin (maximum % of the effect compared with the baseline level defined as 0%)” value came to 250±15%.

The record behind these values is patent US6420413B2, “Heterocycloalkylbenzocyclobutane and heteroarylbenzocyclobutane compounds” (Les Laboratories Servier, priority 2000, dated 2002).
